Measured values: patent US8569267B2, “Tetracyclic tetrahydrofuran derivatives containing cyclic amine side chain” (Janssen Pharmaceutica, NV, priority 2005, dated 2013)

Experiments:
[1] = biological target: T1, human cloned 5-HT2A receptor, expressed in L929 cells (Homo sapiens, UniProt P28223); assay: In vitro binding affinity for 5-HT2A receptor ([125I]R91150 radioligand binding); conditions: human cloned 5-HT2A receptor in L929 cells, [125I]R91150; read-out: 5-HT2A pIC50 (converted)
T1 construct: expressed in transfected cells; host or cells: L929 cells
Method in brief: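 Competition radioligand binding to human cloned 5-HT2A receptor expressed in L929 cells, using [125I]R91150 with test compound at various concentrations. At equilibrium, receptor-bound radioactivity was separated from free and counted. Affinity reflects inhibition of radioligand binding.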

[2] = biological target: T2, NET (norepinephrine transporter) (Rattus norvegicus, UniProt Q63380); assay: In vitro determination of NET reuptake inhibition ([3H]Nixosetine binding, rat brain cortex); conditions: rat brain cortex, read-out: NET pIC50 (converted)
T2 construct: Cortex from rat brain was collected and homogenised; from tissue; host or cells: rat brain cortex
Method in brief: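 Rat cortex homogenised in Tris 50 mM, NaCl 120 mM, KCl 5 mM, pH 7.4 was used for competition binding against [3H]nisoxetine. Bound radioligand was collected by filtration on GF/B filters and counted by scintillation. Percentage specific binding and competition curves were derived.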

[3] = biological target: T3, human cloned 5-HT2C receptor, expressed in CHO cells (Homo sapiens, UniProt P28335); assay: In vitro binding affinity for 5-HT2C receptor ([3H]mesulergine radioligand binding); conditions: human cloned 5-HT2C receptor, read-out: 5-HT2C pIC50 (converted)
T3 construct: expressed in transfected cells; host or cells: CHO cells
T3 sequence (P28335 33-458): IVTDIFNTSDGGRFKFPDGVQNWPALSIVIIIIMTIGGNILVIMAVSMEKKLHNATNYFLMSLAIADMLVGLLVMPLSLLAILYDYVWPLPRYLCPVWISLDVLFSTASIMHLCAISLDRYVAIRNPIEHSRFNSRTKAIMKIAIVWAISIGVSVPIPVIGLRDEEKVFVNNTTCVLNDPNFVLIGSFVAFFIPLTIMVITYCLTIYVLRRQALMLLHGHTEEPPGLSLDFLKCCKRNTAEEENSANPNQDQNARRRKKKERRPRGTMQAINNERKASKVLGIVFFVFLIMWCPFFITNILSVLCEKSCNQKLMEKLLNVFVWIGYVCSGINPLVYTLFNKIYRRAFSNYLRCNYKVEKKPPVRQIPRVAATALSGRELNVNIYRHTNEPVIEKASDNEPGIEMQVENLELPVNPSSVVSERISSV
Method in brief: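 Competition radioligand binding: varying test-compound concentrations incubated with receptor preparation and radioligand to binding equilibrium. Bound radioactivity separated from free and counted; affinity inferred from concentration-dependent inhibition of radioligand binding.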

[4] = biological target: T4, human Dopamine D2L receptor (Homo sapiens, UniProt P14416); assay: In vitro binding affinity for human D2L receptor ([3H]Spiperone binding); conditions: human D2L receptor-transfected CHO cell membranes, read-out: D2L pIC50 (converted)
T4 construct: expressed in transfected cells; host or cells: CHO cells
Method in brief: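 Membranes from CHO cells transfected with the receptor were incubated with [3H]Spiperone (diluted to 2 nmol/L before addition) and compound for 30 min at 37° C. Buffer was Tris-HCl, pH 7.7, with NaCl, CaCl2, MgCl2 and KCl, and non-specific binding was defined with 10^−6 mol/l Butaclamol. Bound radioactivity was collected by filtration, counted by scintillation, and competition curves calculated as percent specific binding.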

T2 sequence (Q63380 1-617): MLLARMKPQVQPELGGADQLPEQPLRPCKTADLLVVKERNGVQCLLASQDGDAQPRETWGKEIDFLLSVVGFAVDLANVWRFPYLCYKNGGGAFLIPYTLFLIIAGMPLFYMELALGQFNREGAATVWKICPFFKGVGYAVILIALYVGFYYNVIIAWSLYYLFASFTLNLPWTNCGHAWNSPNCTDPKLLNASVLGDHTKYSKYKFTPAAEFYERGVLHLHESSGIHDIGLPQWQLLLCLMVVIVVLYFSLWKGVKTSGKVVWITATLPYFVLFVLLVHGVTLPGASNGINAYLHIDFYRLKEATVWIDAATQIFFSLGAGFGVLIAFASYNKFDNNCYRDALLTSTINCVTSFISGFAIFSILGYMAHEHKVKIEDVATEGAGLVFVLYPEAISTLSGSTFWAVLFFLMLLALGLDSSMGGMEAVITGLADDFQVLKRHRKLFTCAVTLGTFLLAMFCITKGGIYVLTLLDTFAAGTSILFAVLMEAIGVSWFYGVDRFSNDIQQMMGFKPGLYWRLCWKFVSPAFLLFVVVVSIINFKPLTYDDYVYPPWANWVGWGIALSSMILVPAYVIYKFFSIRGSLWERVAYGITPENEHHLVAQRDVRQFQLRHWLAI
T4 sequence (P14416 whole entry): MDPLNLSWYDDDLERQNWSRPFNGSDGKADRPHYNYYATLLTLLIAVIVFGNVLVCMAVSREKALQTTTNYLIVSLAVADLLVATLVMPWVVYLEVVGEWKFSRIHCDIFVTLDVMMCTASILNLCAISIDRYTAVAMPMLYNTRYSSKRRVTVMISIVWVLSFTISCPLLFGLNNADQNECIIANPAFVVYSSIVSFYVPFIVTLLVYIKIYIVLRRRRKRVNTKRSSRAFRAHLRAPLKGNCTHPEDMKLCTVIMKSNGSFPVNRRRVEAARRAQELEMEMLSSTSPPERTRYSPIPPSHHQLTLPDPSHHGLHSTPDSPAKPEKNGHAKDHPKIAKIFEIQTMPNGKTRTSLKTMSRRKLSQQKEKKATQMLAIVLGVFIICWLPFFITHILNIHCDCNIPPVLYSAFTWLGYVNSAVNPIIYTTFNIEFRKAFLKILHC
T1 sequence (P28223 whole entry): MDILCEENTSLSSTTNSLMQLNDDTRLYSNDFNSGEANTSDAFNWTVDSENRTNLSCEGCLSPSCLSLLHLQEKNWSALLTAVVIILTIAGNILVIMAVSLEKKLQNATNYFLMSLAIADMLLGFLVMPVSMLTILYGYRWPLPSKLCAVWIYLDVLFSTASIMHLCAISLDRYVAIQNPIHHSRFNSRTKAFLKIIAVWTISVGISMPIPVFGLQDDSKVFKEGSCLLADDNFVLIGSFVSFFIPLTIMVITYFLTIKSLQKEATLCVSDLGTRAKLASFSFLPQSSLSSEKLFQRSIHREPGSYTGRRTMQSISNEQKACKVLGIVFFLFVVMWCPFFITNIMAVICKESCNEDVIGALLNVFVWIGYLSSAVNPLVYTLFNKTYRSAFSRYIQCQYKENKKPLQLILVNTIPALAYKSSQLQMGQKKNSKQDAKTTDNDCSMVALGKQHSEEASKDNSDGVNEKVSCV

SMILES | IC50 [1] [nM] | IC50 [2] [nM] | IC50 [3] [nM] | IC50 [4] [nM]
CC(C)(C)NC(=S)N1CCN(CC2CC3c4ccccc4Cc4ccc(F)cc4C3O2)CC1 (stereo not drawn) [Compound 109] | 14.5 | 263 | 38.9 | 132
O=C(OC1CCN(CC2CC3c4ccccc4Cc4ccc(F)cc4C3O2)C1)C1CCCC1 (mixture of isomers) [Compound 14] | 4.17 | 1230 | 3.31 | 3.89
CN1c2ccccc2[C@H]2C[C@@H](CN3CCC(O)C3)O[C@@H]2c2ccccc21 (relative stereo) [Compound 264] | 166 | 4170 | 19.1 | 2240
COc1ccccc1N1CCN(C(=O)C2CCN(CC3CC4c5ccccc5Cc5ccc(F)cc5C4O3)CC2)CC1 (stereo not drawn) [Compound 203] | 3.63 | 4470 | 3.09 | 16.6
C=CC1(O)CCN(CC2CC3c4ccccc4Cc4ccc(F)cc4C3O2)C1 (stereo not drawn) [Compound 40] | 1.23 | > 10000 | 0.275 | 4.47
CCCCNC(=O)N1CCN(CC2CC3c4ccccc4Cc4ccc(F)cc4C3O2)CC1 (stereo not drawn) [Compound 89] | 2.82 | > 10000 | 6.61 | 38.9
